Results on 10 compounds are retold here after US20050222136A1, “Active substance combination” (priority 2004, published 2005).

Structures can show the parent of a compound that is named as a salt.

Format in all cases: in vivo
One data set relates to male Wistar albino rats. Briefly: Determination of ulcerogenic effect in rats. Conditions: stomach three hours after administration. As for the experimental part: II. Determination of Ulcerogenic Effect in Rats The ulcerogenic effect of the inventive active substance combination is determined in male Wistar albino rats (body weight 160-200 g, obtained from Harlan, S. Feliu de Codinas, Spain) according to the method described in the publication of J. L. Wallace et al., […]. 1990, 259, […]-[…]. The respective part of the description is incorporated by reference and forms part of the present disclosure. Prior to the tests the rats are kept in cages for 24 hours with free access to drinking water. Afterwards the substances to be tested are orally administered to the rats in form of a 5% by weight suspension in arabic gum. Three hours after the administration of the respective substances to be tested the rats are sacrificed by inhalation of carbon dioxide, the stomachs are removed, opened along the great curvature, washed with saline solution and extended over a suitable frame. By the use of a Projectt 1.2 image analyzer (Projectt, Barcelona, Spain) the ulcerated areas of the stomachs are determined and their size expressed in mm^2.

The subject of data set [1] is male Swiss albino mice. The data set can be described thus: Writhing test in mice (phenylbenzoquinone-induced writhing reactions). The following applies: for inhibition at 40 mg/kg / inhibition at 80 mg/kg / inhibition at 160 mg/kg / ED50: Mus musculus; for inhibition at 40 mg/kg / inhibition at 80 mg/kg / inhibition at 160 mg/kg / Writhing test % Activity: 60 minutes prior to phenylbenzoquinone i.p., inhibition of writhing reactions vs control; for ED50: po; for ED50 / Writhing test ED50: mice; for Writhing test ED50: p.o., in mg/kg. As for the experimental part: Ia. Writhing Test in Mice
The Writhing test for the determination of the analgesic activity of the inventive active substance combination is carried out according to the method described in the publication of E. Siegmund et al., Proc. Soc. Exp. Biol. Med. 1957, 95, 729-731 using male Swiss albino mice (20-25 g body weight, obtained from Harlan, S. Feliu de Codinas, Spain). The respective part of the description is hereby incorporated by reference and forms part of the respective disclosure.
The Writhing reactions are induced by intraperitoneal injection of phenylbenzoquinone (25 ml/kg in a 0.02% (volume/volume) ethanolic solution in a 5% (volume/volume) solution in destillated water with Evan's blue in an amount of 0.1% weight/volume) and the writhing reactions are counted during a 15 minute period following the injection. The substances to be tested are orally administered 60 minutes prior to the injection of the phenylbenzoquinone solution. The percentage of the inhibition of the writhing reactions is calculated on the basis of the control group as basis for 0% inhibition.
In general terms: Writhing tests count abdominal constrictions after an irritant is injected.

Data set [2] relates to male Swiss albino mice. Briefly: Formaline test in mice. Conditions: for inhibition at 40 mg/kg: Mus musculus, ip. As for the experimental part: Ib. Formaline Test in Mice
The Formaline test for the determination of the analgesic activity of the inventive active substance combination is carried out according to the method described in the publication of T. Ohkubo et al., J. Pharmacol. Exp. Ther. 1990, 252, 1261-1268 using male Swiss albino mice (20-25 g body weight, obtained from Harlan, S. Feliu de Codinas, Spain). The respective part of the description is hereby incorporated by reference and forms part of the respective disclosure.
The substances to be tested are intraperitoneally administered to the mice in 5% by weight solution of arabic gum in destined water as vehicle. 15 minutes later 20 μl of a 5% by weight solution of formaline in saline solution is injected into the back of the right paw of the animals. The total time in seconds of licking and/or biting the injected paw is registered in the acute phase, i.e. 0-5 minutes (phase I), and in the chronic phase, i.e. 15-30 (phase II), minutes after injection of the formaline. The percentage of inhibition is calculated based on the medium values of the acute and chronic phases of the control group as 0% inhibition of the primary and secondary response.

The mark [3] stands for this setting: 40 mg/kg i.p., acute phase 0-5 minutes after formaline, inhibition of licking/biting time, read-out: Formaline test % Activity Phase I.
Where [4] appears, read: read-out: Formaline test % Activity Phase II.

As a reminder, the ED50 is the dose at which the effect has come halfway, by size or by number of responders. In the case of `O=C(O)Cc1ccccc1Nc1c(Cl)cccc1Cl` [Diclofenac-sodium, diclofenac in form of its sodium salt, reference compound], the Ulcerated area turned out to be 3.81 mm^2 in the data set with male Wistar albino rats (40 mg/kg p.o.) and 13.7 mm^2 with male Wistar albino rats (80 mg/kg p.o.). Also, the inhibition at 40 mg/kg with male Swiss albino mice [1] (40 mg/kg p.o.) amounted to 19.8%. Further, the inhibition at 80 mg/kg with male Swiss albino mice [1] (80 mg/kg p.o.) was 54.9%. Besides, the inhibition at 160 mg/kg with male Swiss albino mice [1] (160 mg/kg p.o.) is 84.1%. Besides, the ED50 with male Swiss albino mice [1] was 75.1 mg/kg.
Consider `CC(C)Cc1ccc(C(C)C(=O)O)cc1` (stereo not shown) [Ibuprofen, reference compound], for which the inhibition at 40 mg/kg in the data set on male Swiss albino mice [1] (40 mg/kg p.o.) came out at 19.8%. Besides, the inhibition at 80 mg/kg in the data set with male Swiss albino mice [1] (80 mg/kg p.o.) amounted to 47.6%. In the data set on male Swiss albino mice [1] (160 mg/kg p.o.), the inhibition at 160 mg/kg worked out at 62.9%. In the data set on male Swiss albino mice [1], the ED50 was 103 mg/kg.
Take `CC(C)Cc1ccc(C(C)C(=O)O)cc1.[Na]` (stereo not shown) [Ibuprofen-sodium, ibuprofen-sodium, reference compound]: the Ulcerated area with male Wistar albino rats (80 mg/kg p.o.) stood at 5.29 mm^2.
Regarding `COc1ccc2cc([C@H](C)C(=O)O)ccc2c1` [Naproxen, reference compound], the inhibition at 40 mg/kg in the data set on male Swiss albino mice [2] (setting [3]) came out at 31.5%; with male Swiss albino mice [2] (setting [4]), 18%; in the data set on male Swiss albino mice [1] (40 mg/kg p.o.), 32%. The Ulcerated area in the data set on male Wistar albino rats (80 mg/kg p.o.) is recorded as 10.5 mm^2. For the same compound, in the data set with male Swiss albino mice [1] (80 mg/kg p.o.), the inhibition at 80 mg/kg was determined as 51.2%. The inhibition at 160 mg/kg in the data set on male Swiss albino mice [1] (160 mg/kg p.o.) came out at 78.5%. For the same compound, the ED50 in the data set on male Swiss albino mice [1] was 71.2 mg/kg.
With `CN(C)CCO[C@H](c1ccccc1)c1ccnn1C.O=C(O)Cc1ccccc1Nc1c(Cl)cccc1Cl` [R-(+)-Cizolirtine diclofenacate, R-(+)-5-[α-[2-(Dimethylamino)ethoxy]benzyl]-1-methyl-1H-pyrazole diclofenacate], the Ulcerated area is on record as 2.75 mm^2 in the data set on male Wistar albino rats (80 mg/kg p.o.) and 7.24 mm^2 in the data set with male Wistar albino rats (160 mg/kg p.o.). Further, the “Writhing test % Activity” value in the data set with male Swiss albino mice [1] (40 mg/kg p.o.) is on record as 14.7%; in the data set with male Swiss albino mice [1] (80 mg/kg p.o.) it was 57.3%; in the data set with male Swiss albino mice [1] (160 mg/kg p.o.), 72.1%. Further, the “Writhing test ED50” value in the data set with male Swiss albino mice [1] came to 84.
`CC(C)Cc1ccc([C@H](C)C(=O)O)cc1.CN(C)CCO[C@H](c1ccccc1)c1ccnn1C` [R-(+)-Cizolirtine ibuprofenate, R-(+)-5-[α-[2-(Dimethylamino)ethoxy]benzyl]-1-methyl-1H-pyrazole S-(+)-ibuprofenate]: the Ulcerated area with male Wistar albino rats (160 mg/kg p.o.) came out at 3.21 mm^2. Also, the results for the “Writhing test % Activity” value in the data set on male Swiss albino mice [1] (40 mg/kg p.o.), in the data set with male Swiss albino mice [1] (80 mg/kg p.o.) and with male Swiss albino mice [1] (160 mg/kg p.o.) were 15.9%, 45% and 80.9%, respectively. For the same compound, in the data set on male Swiss albino mice [1], the “Writhing test ED50” value was 84.8.
`CN(C)CCO[C@H](c1ccccc1)c1ccnn1C.COc1ccc2cc([C@H](C)C(=O)O)ccc2c1` [R-(+)-Cizolirtine naproxenate, R-(+)-5-[α-[2-(Dimethylamino)ethoxy]benzyl]-1-methyl-1H-pyrazole naproxenate]: in the data set on male Swiss albino mice [2] (40 mg/kg i.p., acute phase 0-5 minutes after formaline, inhibition of licking/biting time), the “Formaline test % Activity Phase I” value is given as 49%. The “Formaline test % Activity Phase II” value in the data set with male Swiss albino mice [2] (40 mg/kg i.p., chronic phase 15-30 minutes after formaline, inhibition of licking/biting time) was 36%. For the same compound, the Ulcerated area in the data set on male Wistar albino rats (160 mg/kg p.o.) is given as 6.86 mm^2. In addition, the “Writhing test % Activity” value was found to be 32.0% in the data set with male Swiss albino mice [1] (40 mg/kg p.o.), 52.0% in the data set with male Swiss albino mice [1] (80 mg/kg p.o.) and 77.3% in the data set with male Swiss albino mice [1] (160 mg/kg p.o.). Moreover, in the data set on male Swiss albino mice [1], the “Writhing test ED50” value is 71.29.
As to `CN(C)CCO[C@H](c1ccccc1)c1ccnn1C` [R-(+)-Cizolirtine, R-(+)5-[α-[2-(Dimethylamino)ethoxy]benzyl]-1-methyl-1H-pyrazole], in the data set with male Swiss albino mice [2] (setting [3]), the inhibition at 40 mg/kg turned out to be 83%. The inhibition at 40 mg/kg in the data set with male Swiss albino mice [2] (setting [4]) came to 68.5%. In the data set with male Swiss albino mice [1] (40 mg/kg p.o.), the “Writhing test % Activity” value was 28.9% and the inhibition at 40 mg/kg came to 29%. The inhibition at 80 mg/kg with male Swiss albino mice [1] (80 mg/kg p.o.) was found to be 49.7%. In addition, the inhibition at 160 mg/kg in the data set on male Swiss albino mice [1] (160 mg/kg p.o.) was determined as 72.5%. Also, in the data set on male Swiss albino mice [1], the ED50 came to 79 mg/kg and the “Writhing test ED50” value is listed as 79.
As to `CN(C)CCO[C@@H](c1ccccc1)c1ccnn1C.COc1ccc2cc([C@H](C)C(=O)O)ccc2c1` [S-(−)-Cizolirtine naproxenate, S-(−)-5-[α-[2-(Dimethylamino)ethoxy]benzyl]-1-methyl-1H-pyrazole naproxenate], the results for the “Writhing test % Activity” value with male Swiss albino mice [1] (40 mg/kg p.o.), in the data set with male Swiss albino mice [1] (80 mg/kg p.o.) and with male Swiss albino mice [1] (160 mg/kg p.o.) were 26.7%, 52.4% and 68.5%, respectively. Further, in the data set with male Swiss albino mice [1], the “Writhing test ED50” value is 82.15.
For `CN(C)CCO[C@@H](c1ccccc1)c1ccnn1C` [S-(−)-Cizolirtine, S-(−)-5-[α-[2-(Dimethylamino)ethoxy]benzyl]-1-methyl-1H-pyrazole], the “Writhing test % Activity” value in the data set on male Swiss albino mice [1] (40 mg/kg p.o.) is 29.0%; with male Swiss albino mice [1] (80 mg/kg p.o.) it was 49.7%; in the data set with male Swiss albino mice [1] (160 mg/kg p.o.), 59.7%. The “Writhing test ED50” value in the data set on male Swiss albino mice [1] worked out at 95.26.
